Source: ChEMBL document CHEMBL4507291 (2021)

What was measured:
[1] = molecular target: Mitogen-activated protein kinase kinase kinase 10 (Homo sapiens) (UniProt Q02779)
[2] = molecular target: Cyclin-dependent kinase 18 (Homo sapiens) (UniProt Q07002)
[3] = molecular target: Serine/threonine-protein kinase 26 (Homo sapiens) (UniProt Q9P289)
[4] = molecular target: Testis-specific serine/threonine-protein kinase 1 (Homo sapiens) (UniProt Q9BXA7)
[5] = molecular target: Tyrosine-protein kinase BTK (Homo sapiens) (UniProt Q06187)
[6] = molecular target: Leukocyte tyrosine kinase receptor (Homo sapiens) (UniProt P29376)
[7] = molecular target: Glycogen synthase kinase-3 alpha (Homo sapiens) (UniProt P49840)
[8] = molecular target: Serine/threonine-protein kinase ULK1 (Homo sapiens) (UniProt O75385)
[9] = molecular target: Hepatocyte growth factor receptor (Homo sapiens) (UniProt P08581)
[10] = molecular target: Tyrosine-protein kinase Fgr (Homo sapiens) (UniProt P09769)
[11] = molecular target: Casein kinase I isoform gamma-3 (Homo sapiens) (UniProt Q9Y6M4)
[12] = test system: Tyrosine-protein kinase ABL1 (Homo sapiens), P00519 [F317I]
[13] = molecular target: Receptor tyrosine-protein kinase erbB-2 (Homo sapiens) (UniProt P04626)
[14] = molecular target: T1, Rhodopsin kinase GRK7 (Homo sapiens) (UniProt Q8WTQ7)
T1 sequence (whole entry): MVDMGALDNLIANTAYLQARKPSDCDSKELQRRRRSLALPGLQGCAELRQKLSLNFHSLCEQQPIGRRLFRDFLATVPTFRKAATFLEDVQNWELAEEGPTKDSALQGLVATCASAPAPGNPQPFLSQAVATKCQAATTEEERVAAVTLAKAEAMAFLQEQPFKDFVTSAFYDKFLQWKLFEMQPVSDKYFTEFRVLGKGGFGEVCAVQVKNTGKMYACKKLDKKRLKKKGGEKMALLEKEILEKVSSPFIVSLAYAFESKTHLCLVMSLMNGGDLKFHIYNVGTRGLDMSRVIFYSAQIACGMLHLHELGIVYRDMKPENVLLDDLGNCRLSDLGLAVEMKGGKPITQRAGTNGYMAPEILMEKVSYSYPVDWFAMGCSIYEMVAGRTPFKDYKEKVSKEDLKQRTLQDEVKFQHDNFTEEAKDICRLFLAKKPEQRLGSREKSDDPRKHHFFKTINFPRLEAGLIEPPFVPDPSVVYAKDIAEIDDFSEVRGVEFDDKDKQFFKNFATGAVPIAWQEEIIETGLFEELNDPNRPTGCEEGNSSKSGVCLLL

[15] = molecular target: T2, Cytoplasmic tyrosine-protein kinase BMX (Homo sapiens) (UniProt P51813)
T2 sequence (whole entry): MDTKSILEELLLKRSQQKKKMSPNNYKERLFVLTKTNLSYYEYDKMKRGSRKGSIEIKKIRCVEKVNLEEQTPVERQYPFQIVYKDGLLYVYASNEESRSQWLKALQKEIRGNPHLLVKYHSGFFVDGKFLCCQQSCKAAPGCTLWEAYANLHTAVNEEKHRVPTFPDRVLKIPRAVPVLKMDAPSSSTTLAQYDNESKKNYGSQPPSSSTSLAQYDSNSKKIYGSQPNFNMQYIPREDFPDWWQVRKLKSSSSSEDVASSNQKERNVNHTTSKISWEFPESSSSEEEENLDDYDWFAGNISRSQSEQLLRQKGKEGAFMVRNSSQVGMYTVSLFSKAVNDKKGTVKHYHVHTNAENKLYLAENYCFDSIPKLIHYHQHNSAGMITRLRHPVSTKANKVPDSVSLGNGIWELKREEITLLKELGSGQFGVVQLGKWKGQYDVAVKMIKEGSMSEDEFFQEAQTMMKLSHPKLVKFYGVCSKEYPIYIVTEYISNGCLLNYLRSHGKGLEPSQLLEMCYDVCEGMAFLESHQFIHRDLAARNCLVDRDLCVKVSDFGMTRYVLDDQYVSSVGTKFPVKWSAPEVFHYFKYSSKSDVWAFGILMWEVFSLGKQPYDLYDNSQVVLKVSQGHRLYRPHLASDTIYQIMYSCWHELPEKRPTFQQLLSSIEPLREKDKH

[16] = molecular target: Serine/threonine-protein kinase 16 (Homo sapiens) (UniProt O75716)
[17] = molecular target: Serine/threonine-protein kinase haspin (Homo sapiens) (UniProt Q8TF76)
[18] = molecular target: Phosphorylase b kinase gamma catalytic chain, skeletal muscle/heart isoform (Homo sapiens) (UniProt Q16816)
[19] = molecular target: ALK tyrosine kinase receptor (Homo sapiens) (UniProt Q9UM73)
[20] = molecular target: Ribosomal protein S6 kinase alpha-6 (Homo sapiens) (UniProt Q9UK32)
[21] = molecular target: Platelet-derived growth factor receptor alpha (Homo sapiens) (UniProt P16234)
[22] = molecular target: Serine/threonine-protein kinase MRCK beta (Homo sapiens) (UniProt Q9Y5S2)
[23] = molecular target: Mitogen-activated protein kinase kinase kinase 6 (Homo sapiens) (UniProt O95382)
[24] = molecular target: Tyrosine-protein kinase JAK1 (Homo sapiens) (UniProt P23458)
[25] = molecular target: Serine/threonine-protein kinase TAO1 (Homo sapiens) (UniProt Q7L7X3)
[26] = molecular target: Epidermal growth factor receptor (Homo sapiens) (UniProt P00533)
[27] = test system: Tyrosine-protein kinase ABL1 (Homo sapiens), P00519 [Q252H]
[28] = molecular target: Ribosomal protein S6 kinase alpha-5 (Homo sapiens) (UniProt O75582)
[29] = molecular target: Uncharacterized serine/threonine-protein kinase SBK3 (Homo sapiens) (UniProt P0C264)
[30] = Compound concentration 100.0 nM
[31] = Compound concentration 1000.0 nM

Measured: residual activity

Chain of Serine/threonine-protein kinase ULK1 (Homo sapiens) (O75385 whole entry): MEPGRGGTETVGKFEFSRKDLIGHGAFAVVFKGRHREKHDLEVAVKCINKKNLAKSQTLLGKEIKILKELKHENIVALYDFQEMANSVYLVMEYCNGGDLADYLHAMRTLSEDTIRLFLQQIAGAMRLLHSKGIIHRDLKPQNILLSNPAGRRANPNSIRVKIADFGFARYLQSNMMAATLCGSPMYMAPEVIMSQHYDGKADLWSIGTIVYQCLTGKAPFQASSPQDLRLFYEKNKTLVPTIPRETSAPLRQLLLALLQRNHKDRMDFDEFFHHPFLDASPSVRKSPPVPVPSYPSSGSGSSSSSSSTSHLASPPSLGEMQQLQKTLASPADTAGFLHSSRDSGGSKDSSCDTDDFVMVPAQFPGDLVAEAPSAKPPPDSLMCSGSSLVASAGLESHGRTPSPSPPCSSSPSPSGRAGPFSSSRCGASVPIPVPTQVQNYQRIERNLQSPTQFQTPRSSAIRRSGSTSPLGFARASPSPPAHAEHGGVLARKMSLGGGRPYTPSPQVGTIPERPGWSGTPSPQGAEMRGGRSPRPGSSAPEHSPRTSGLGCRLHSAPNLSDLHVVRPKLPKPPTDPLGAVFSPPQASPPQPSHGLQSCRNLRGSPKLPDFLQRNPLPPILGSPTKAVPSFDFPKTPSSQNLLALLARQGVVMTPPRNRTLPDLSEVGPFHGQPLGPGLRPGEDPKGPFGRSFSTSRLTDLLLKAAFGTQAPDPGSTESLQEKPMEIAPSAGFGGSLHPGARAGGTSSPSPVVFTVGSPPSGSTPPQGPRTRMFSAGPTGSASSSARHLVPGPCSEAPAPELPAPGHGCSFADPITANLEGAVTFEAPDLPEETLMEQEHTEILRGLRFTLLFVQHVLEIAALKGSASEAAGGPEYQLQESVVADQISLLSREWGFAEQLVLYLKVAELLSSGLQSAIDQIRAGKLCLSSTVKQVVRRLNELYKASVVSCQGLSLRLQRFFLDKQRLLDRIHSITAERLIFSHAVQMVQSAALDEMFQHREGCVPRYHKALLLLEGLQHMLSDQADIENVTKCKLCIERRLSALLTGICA
Chain of ALK tyrosine kinase receptor (Homo sapiens) (Q9UM73 19-1620 limits assumed): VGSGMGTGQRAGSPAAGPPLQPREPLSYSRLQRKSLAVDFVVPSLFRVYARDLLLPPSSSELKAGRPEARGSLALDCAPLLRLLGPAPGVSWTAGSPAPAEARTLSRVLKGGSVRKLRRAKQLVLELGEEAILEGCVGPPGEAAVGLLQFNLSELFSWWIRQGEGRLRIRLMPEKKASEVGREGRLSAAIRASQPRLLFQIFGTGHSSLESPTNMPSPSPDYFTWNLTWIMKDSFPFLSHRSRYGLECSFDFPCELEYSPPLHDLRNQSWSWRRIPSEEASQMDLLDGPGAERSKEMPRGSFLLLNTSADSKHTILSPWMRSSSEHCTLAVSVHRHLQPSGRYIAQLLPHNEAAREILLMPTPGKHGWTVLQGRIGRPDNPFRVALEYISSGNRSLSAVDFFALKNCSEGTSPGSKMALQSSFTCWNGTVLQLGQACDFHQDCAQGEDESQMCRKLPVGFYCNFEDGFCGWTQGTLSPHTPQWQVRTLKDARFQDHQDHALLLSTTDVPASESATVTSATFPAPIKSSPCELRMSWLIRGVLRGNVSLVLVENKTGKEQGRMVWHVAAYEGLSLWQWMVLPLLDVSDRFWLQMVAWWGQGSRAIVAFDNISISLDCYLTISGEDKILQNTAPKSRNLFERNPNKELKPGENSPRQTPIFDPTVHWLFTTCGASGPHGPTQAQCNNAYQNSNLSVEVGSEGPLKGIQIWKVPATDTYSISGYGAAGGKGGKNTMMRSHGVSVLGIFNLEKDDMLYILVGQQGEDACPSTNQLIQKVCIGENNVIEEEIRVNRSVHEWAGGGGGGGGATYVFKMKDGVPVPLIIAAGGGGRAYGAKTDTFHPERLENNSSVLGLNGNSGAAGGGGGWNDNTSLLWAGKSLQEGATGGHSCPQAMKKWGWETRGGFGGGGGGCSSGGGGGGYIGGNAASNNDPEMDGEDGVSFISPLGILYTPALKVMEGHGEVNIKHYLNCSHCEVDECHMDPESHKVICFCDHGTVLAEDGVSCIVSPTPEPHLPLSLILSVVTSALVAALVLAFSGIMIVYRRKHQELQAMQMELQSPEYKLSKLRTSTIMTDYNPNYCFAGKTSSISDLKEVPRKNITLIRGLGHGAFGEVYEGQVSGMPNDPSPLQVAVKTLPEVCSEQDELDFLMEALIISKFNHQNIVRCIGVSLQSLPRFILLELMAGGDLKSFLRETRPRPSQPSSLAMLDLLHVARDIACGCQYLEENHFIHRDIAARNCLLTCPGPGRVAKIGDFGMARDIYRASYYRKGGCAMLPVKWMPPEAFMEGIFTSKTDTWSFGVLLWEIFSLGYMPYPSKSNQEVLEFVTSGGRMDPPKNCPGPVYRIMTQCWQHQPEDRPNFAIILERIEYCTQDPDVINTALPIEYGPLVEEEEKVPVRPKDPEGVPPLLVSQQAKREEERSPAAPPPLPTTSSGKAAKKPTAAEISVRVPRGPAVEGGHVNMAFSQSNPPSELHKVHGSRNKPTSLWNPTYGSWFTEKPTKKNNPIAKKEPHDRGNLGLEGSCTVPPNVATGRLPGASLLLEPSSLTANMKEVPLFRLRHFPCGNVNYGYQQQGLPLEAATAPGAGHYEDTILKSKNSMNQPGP
Chain of Serine/threonine-protein kinase TAO1 (Homo sapiens) (Q7L7X3 whole entry): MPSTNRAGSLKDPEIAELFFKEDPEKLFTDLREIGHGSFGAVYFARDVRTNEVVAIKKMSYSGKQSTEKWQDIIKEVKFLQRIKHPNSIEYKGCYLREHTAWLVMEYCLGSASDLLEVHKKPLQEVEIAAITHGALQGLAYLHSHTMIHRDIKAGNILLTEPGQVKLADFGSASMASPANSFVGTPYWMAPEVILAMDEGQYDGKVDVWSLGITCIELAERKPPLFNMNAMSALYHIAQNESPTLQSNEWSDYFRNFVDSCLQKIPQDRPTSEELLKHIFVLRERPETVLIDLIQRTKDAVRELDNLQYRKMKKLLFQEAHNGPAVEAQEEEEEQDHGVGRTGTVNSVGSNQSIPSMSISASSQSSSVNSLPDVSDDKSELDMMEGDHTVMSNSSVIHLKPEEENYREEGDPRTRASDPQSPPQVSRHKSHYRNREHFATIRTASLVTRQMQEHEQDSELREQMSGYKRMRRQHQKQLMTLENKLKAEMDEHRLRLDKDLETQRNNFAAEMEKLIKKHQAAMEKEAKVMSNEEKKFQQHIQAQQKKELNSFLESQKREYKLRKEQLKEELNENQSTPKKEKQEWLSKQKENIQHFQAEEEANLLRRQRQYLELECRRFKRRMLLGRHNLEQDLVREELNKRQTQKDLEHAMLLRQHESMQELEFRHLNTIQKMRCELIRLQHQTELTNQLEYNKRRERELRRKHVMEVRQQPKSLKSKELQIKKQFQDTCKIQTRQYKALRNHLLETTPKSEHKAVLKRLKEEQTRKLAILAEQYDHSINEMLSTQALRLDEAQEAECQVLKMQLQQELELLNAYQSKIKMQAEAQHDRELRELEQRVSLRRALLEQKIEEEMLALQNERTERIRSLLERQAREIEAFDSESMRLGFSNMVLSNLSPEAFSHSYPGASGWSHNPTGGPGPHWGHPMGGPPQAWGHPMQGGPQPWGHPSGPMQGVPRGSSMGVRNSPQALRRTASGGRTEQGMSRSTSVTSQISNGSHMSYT
Chain of Testis-specific serine/threonine-protein kinase 1 (Homo sapiens) (Q9BXA7 whole entry): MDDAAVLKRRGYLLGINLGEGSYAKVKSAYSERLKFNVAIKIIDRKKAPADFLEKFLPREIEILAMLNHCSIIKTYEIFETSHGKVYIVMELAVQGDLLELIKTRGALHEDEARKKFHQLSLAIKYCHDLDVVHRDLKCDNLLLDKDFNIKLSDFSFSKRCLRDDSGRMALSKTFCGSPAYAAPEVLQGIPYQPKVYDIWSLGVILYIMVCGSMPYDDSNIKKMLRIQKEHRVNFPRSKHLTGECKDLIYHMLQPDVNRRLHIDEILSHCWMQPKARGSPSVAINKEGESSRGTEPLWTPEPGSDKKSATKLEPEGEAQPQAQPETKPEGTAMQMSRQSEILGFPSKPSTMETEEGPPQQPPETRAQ
Chain of Phosphorylase b kinase gamma catalytic chain, skeletal muscle/heart isoform (Homo sapiens) (Q16816 whole entry, looked up, canonical isoform): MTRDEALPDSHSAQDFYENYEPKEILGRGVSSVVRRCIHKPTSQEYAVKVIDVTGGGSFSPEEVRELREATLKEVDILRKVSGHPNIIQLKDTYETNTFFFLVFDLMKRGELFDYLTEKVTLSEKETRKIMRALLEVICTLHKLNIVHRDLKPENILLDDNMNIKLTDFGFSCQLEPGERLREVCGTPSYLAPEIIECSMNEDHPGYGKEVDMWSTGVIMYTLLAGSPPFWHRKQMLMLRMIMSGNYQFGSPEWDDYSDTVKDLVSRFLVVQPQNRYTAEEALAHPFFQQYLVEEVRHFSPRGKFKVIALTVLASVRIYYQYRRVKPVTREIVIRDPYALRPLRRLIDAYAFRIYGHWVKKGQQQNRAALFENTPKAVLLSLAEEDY
Chain of Cyclin-dependent kinase 18 (Homo sapiens) (Q07002 whole entry): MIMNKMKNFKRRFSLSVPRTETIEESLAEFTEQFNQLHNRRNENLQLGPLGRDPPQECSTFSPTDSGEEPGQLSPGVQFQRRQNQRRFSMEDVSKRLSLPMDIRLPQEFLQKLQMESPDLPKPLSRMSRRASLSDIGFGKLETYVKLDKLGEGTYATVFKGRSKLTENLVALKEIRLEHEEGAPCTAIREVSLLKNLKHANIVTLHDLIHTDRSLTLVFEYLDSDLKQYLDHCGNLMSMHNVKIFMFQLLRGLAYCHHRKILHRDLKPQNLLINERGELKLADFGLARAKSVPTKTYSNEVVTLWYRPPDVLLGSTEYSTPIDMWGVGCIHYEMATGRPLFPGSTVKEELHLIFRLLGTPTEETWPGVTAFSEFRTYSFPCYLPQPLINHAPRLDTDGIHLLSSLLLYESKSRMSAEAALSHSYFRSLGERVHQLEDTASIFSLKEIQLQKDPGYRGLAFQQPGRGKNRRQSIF

C[C@@H]1CN(c2cc(-c3n[nH]c4ccc(OC5(C)CC5)cc34)ncn2)C[C@H](C)O1 [MLi-2]
inactive: [1]; [30] 100% | [2]; [30] 100% | [3]; [30] 76% | [4]; [30] 72% | [5]; [30] 73% | [6]; [30] 84% | [7]; [30] 100% | [8]; [30] 80% | [9]; [30] 100% | [10]; [30] 89% | [11]; [30] 95% | [12]; [30] 74% | [13]; [30] 77% | [14]; [30] 64% | [15]; [30] 80% | [16]; [30] 100% | [17]; [30] 74% | [18]; [30] 100% | [19]; [30] 65% | [20]; [30] 77% | [21]; [30] 75% | [22]; [30] 93% | [23]; [30] 59% | [24]; [30] 79% | [25]; [30] 86% | [26]; [30] 76% | [27]; [30] 64% | [28]; [30] 97% | [29]; [30] 100%

C[C@@H]1CN(c2cc(-c3nn(C)c4ccc(OC5(C)CC5)cc34)ncn2)C[C@H](C)O1 [MLi-2-NC]
inactive: [1]; [31] 100% | [2]; [31] 100% | [3]; [31] 74% | [4]; [31] 99% | [5]; [31] 80% | [6]; [31] 100% | [7]; [31] 86% | [8]; [31] 76% | [9]; [31] 100% | [10]; [31] 90% | [11]; [31] 100% | [12]; [31] 62% | [13]; [31] 80% | [14]; [31] 100% | [15]; [31] 93% | [16]; [31] 100% | [17]; [31] 99% | [18]; [31] 90% | [19]; [31] 64% | [20]; [31] 78% | [21]; [31] 83% | [22]; [31] 100% | [23]; [31] 76% | [24]; [31] 84% | [25]; [31] 82% | [26]; [31] 97% | [27]; [31] 58% | [28]; [31] 100% | [29]; [31] 100%
